Where “and” joins values, the source holds several entries; their conditions need not be identical. Equal values may be shown once. Read-outs that look alike come from different tables or passages of the source. Blank lines part the entries; values can stand above or below the molecule they belong to.
Legend:
[1] = biological target: T1, GB1-FRS2-PTB (Homo sapiens, UniProt Q8WU20); experiment: NMR STD and WaterLOGSY ligand observation; format: binding; conditions: 25 µM GB1-FRS2-PTB, 500 µM ligand, 280 K
T1 construct: FRS2-PTB 11-140aa; 6xHis (N); made in house; host or cells: E. coli BL21 (DE3)
T1 sequence (Q8WU20 11-140): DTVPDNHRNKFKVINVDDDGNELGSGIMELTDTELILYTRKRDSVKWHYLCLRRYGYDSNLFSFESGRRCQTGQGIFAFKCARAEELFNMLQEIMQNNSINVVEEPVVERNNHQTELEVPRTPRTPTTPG
Experimental: STD and WaterLOGSY experiments were measured at 7 °C on a Bruker AvNEO 600 spectrometer equipped with a TCI cryoprobe. In the STD experiments saturation was achieved by applying a series of Gaussian-shaped pulses at a RF field strength of 54 Hz (max.) for 3 s at -0.5 ppm (-40 ppm for the reference experiment) and 512 scans were accumulated. The WaterLOGSY was measured with 256 scans and a mixing time of 1.5 s. A 7.5 ms Gaussian-shaped 180° pulse was used to control the water magnetization. For both experiments samples of 25 µM GB1-FRS2_PTB with a 20-fold excess of ligand (500 µM) were used or with the ligand alone for the control experiment.

[2] = biological target: T1, GB1-FRS2-PTB; experiment: Microscale thermophoresis (MST); format: binding; conditions: for Kd: GB1-FRS2_PTB; for binding by MST trace analysis (result in words): signal:noise ratio > 5 counts as binding
Experimental: Protein labeling for MST was performed with the 2nd Generation BLUE-NHS dye. GB1-FRS2_PTB- was labelled at 20 μM with 60 μM dye and incubated for 30 min in the dark at room temperature. The labelling was performed in the protein buffer without arginine supplementation. It was rebuffered to protein buffer (100 mM sodium phosphate, 50 mM NaCl, 0.5 mM EDTA, 50 mM arginine, 1 mM TCEP, pH 7.0). The dye was subsequently removed by gravitational flow chromatography and the protein concentration determined by UV-spectroscopy. The assay was established with the FGFR_PEP. […] A total volume of 10 μl of 50 nM labelled protein was added to 10 μl of the peptide dilution series for a final labelled protein concentration of 25 nM. The samples were incubated for 15 min at RT. […] Temperature was set to 25 °C. Each measurement was repeated twice. The interaction was measured in duplicates for the non-DMSO-supplemented buffer and in triplicates for DMSO-supplemented buffer. […] The samples were incubated for 15 min, and MST assessed as described above. Each measurement was repeated twice. The interaction was measured in two independent duplicates. […] The mixture was then measured for their initial fluorescence once. MST-experiments were performed with MO.Control vers. 1.6 (NanoTemper Technologies, Munich, Germany) and data analyzed with MO.Analysis vers. 2.3 (NanoTemper Technologies, Munich, Germany). Data was plotted with GraphPad Prism vers. 8.3.0 (GraphPad Software, San Diego, USA).

[3] = Multi-dose MTD with plasma exposure; format: in vivo
Experimental: […]. […] Body weights were recorded once daily for 8 days. […] In addition, plasma samples were collected at 0.5, 1, 2 and 5.3 h(s) after the second dose on Day 4 (150 mg/kg, PO; bid × 5 group) and at 0.5, 1, 2 and 6 h(s) after the final dose on Day 5 (200 mg/kg, PO; qd × 5 group). The exposure levels (ng/mL) of 7 in plasma samples were then determined by LC–MS/MS. AUClast was calculated from the area under the plasma concentration–time curve from time zero to time of last measurable concentration.

[4] = tested on: DAOY siCTL cells; experiment: SIA, bFGF-induced collagen I invasion in control siRNA cells; format: cell-based; conditions: Homo sapiens
Experimental: 1000—2500 cells/well in 100 μl were seeded in 96 well Corning® Spheroid microplate (CLS4520, Sigma-Aldrich) or in cell-repellent 96 well microplate (650,790, Greiner Bio-one). SIA and analysis was performed as described before. In brief: After spheroid formation (24 – 72 h after seeding), 70 µl medium was removed and replaced with the collagen mixture (2.5 mg/ml Pure Col Collagen I (Advanced Biomatrix)), DMEM 1x (from 10 × stock, Sigma, D2429) and 0.4% Sodium bicarbonate (Sigma, S8761)), resulting in a final collagen concentration of 1.75 mg/ml. Embedded spheroids were stimulated with bFGF (100 ng/ml if not otherwise stated), HGF (30 ng /ml) or EGF (20 ng/ml) and distance of invaded cells quantified 24 – 48 h after embedding. Compounds and BGJ398 were added in Dimethylsulfoxid (DMSO) and corresponding DMSO concentrations were used in control samples.
siFRS2 in DAOY cells: 50,000 cells/well in 2 ml medium were seeded in 6 well plates and incubated at 37 °C, 5% CO2. The following day cells were transfected with 10 nM siRNA (5 nM Silencer Select, 5 nM Stealth RNAi siRNA) using Lipofectamin RNAiMAX Transfection Reagent (13,778,075; Invitrogen) and Opti-MEM® medium (15,392,402; Gibco). After 6 h, the medium was exchanged with fresh complete medium and further processed for the SIA protocol.

[5] = mouse, in vivo
Experimental: […]. Animals received an initial dose of 30 mg/kg. If the animals had no significant adverse effects within 60 min after treatment, the dose for the next cohort was increased. If one or more animals died or had significant adverse effects within 60 min after treatment, the dose for the next cohort was decreased. The testing stopped when all animals survived at the upper bound (200 mg/kg), or lower bound (3 mg/kg) had been reached. Full clinical examinations and body weight change were assessed. At each dose level, animals were observed, and mortality was noted daily after compound administration for three days. […] Body weights were recorded pre-dose and at 72 h.
The next dose level was determined by the following scheme: • 30 mg/kg, if no death, 100 mg/kg, if no death, 200 mg/kg (upper bound) • 30 mg/kg, if no death, 100 mg/kg, if death, 50 mg/kg • 30 mg/kg, if death, 10 mg/kg, if death, 3 mg/kg (lower bound) • 30 mg/kg, if death, 10 mg/kg, if no death, 17 mg/kg

[6] = read-out: KD, initial fluorescence change analysis

binding to the PTB domain by STD and WaterLOGSY (result in words) [1]: clearly demonstrated binding
Kd ([2]; fitting with signal-noise ratio < 5 is considered no binding, read-out: KD, MST trace analysis): 150 µM and 400 µM
Kd [2, 6]: 19.6 µM and 12.8 µM and 12.8 to 19.6 µM
binding by MST trace analysis (result in words) [2]: did show binding
Structure (SMILES): CC(C)C[C@@H](CO)NCc1cc(O)c2cc(F)ccc2n1 [Compound 3.14]

Structure (SMILES): O=[N+]([O-])c1c(Cl)cc(O)c2c1C1C=CCC1C(c1ccc(Cl)cc1)N2 (centres unmarked) [Compound 7]
additional body weight loss, days 5-8 ([3]; 200 mg/kg daily for 5 days): 14.6%
body weight loss, days 1-5 ([3]; 200 mg/kg daily for 5 days): 10%
multi-dose clinical signs (result in words) ([3]; 200 mg/kg daily for 5 days): induced vocalization, hunchback and decrease in touch response, abdominal and limb tone and low limb post
plasma concentration reached, multi-dose ([3]; 200 mg/kg once daily for 5 days, day five, for at least six h after administration): 20 µM
multi-dose mortality (result in words) ([3]; mouse, in vivo): No mortality was noted
IC50 [4]: 3.01 µM
single-dose tolerability (result in words) [5]: No mortality and body weight loss was observed

binding to the PTB domain by STD and WaterLOGSY (result in words) [1]: clearly demonstrated binding
Structure (SMILES): O=C(O)c1c(Cl)cc(O)c2c1C1C=CCC1C(c1ccc(Cl)cc1)N2 (centres unmarked) [Compound 13]

Kd [2, 6]: 3.1 µM and 4 µM
binding by MST trace analysis (result in words) [2]: no binding was detected
Structure (SMILES): COc1ncc(C(C)NC2CC(C)(C)NC(C)(C)C2)cc1Cl (centres unmarked) [Compound 3.3]

— paper PMC10060354, “Discovery of a small molecule ligand of FRS2 that inhibits invasion and tumor growth” (Cellular Oncology, 2022)
